The source made the active and inactive calls. No rule for the calls is given here.

The target of the test is X-box-binding protein 1 (Homo sapiens) (UniProt P17861). Description: inhibitors of XBP1 reporter signal, dose response, counter-screen, cell-based (AID 504313).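 Also: CHO cells carrying an XBP1 reporter stimulated with tunicamycin; potency is for inhibition of the tunicamycin-induced reporter signal.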 Particulars: XBP1 reporter cell assay, percent of control.
The term IC50 denotes the concentration that inhibits the measured activity by half. For `Cc1ccc2c(c1)c1c(n2CC(O)Cn2c(C)nc3ccccc32)CCCC1` (stereo not drawn), the IC50 result was “inactive”.
Regarding `O=C(O)c1ccc(N/N=C/c2ccc3nccnc3c2)cc1`, the IC50 was 1.83 µM.
For the compound `Nc1ccc2c(c1)C(=O)C(=O)c1ccccc1-2`, the IC50 entry was “inactive”.
Next, `N#C/C(=C\c1ccc([N+](=O)[O-])o1)C(=O)Nc1ccc(F)cc1`: > 10 µM (inactive); `CC1=CC2/C=C(\C)CCC(O)C(O)/C=C/C(=O)C23C(=O)NC(CC(C)C)C3C1C` (stereo not drawn): “inactive”; `COc1cccc(-n2nnnc2S(C)(=O)=O)c1`: “inactive”.
For `OC(c1cccc(OCc2ccccc2)c1)c1nnc(-c2ccccc2)o1` (stereo not drawn), the IC50 is > 10 µM (inactive).
As to `CCc1ccc2c(c1)C(c1ccc([N+](=O)[O-])cc1)=NNC(c1ccc(C)cc1)=N2`, the IC50 is > 10 µM (inactive).
With `CCCCCCOC(=O)c1ccccc1N`, the IC50 is > 10 µM (inactive).
To `O=C(COc1ccc(Cl)cc1Cl)NCCC1=CCCCC1` belongs 4.23 µM; to `Cn1c2ccccc2c(=O)c2c(=O)n(C3CCCCCC3)c(C3CCCCC3)nc21`, > 10 µM (inactive).
As to `NC(=S)n1[nH]c(-c2ccc([N+](=O)[O-])cc2)c(N=Nc2cccc([N+](=O)[O-])c2)c1=O`, the IC50 result is “inactive”.
To `Cc1ccc(C(C)C)c(OCC(=O)N/N=C/C2CCCCC2)c1` belongs “inactive”.
To `CN1C2CCC1/C(=C/c1ccccn1)C(=O)/C2=C\c1ccccn1` belongs 0.54 µM; to `O=C(O)c1cccc(COc2ccccc2Cl)c1`, 0.91 µM; to `CC(C)=C1C2CCC1C(C(=O)Nc1sc(C)c(-c3ccc(C(C)C)cc3)c1C(N)=O)C2C(=O)O` (stereo not drawn), “inactive”.
Next, `O=[N+]([O-])c1ccc(/C=N/N=C/c2ccc([N+](=O)[O-])o2)o1`: 2.59 µM; `CCOC(=O)C1=C(O)/C(=C/c2ccc(CNC(=O)C(=O)Nc3ccc(C)cc3)o2)N=C1C`: > 10 µM (inactive).
For `NC(N)=N/N=C/c1cn(-c2ccccc2)nc1-c1cccs1`, the IC50 is > 10 µM (inactive).
Next, `Cc1nn(Cc2c(Cl)cccc2Cl)c(C)c1NC(=O)c1cc(C(C)C)on1`: > 10 µM (inactive); `CCOc1cc(C(=O)CSc2nnc(CNc3ccc(Cl)cc3)o2)ccc1NC(=O)CC`: “inactive”; `CC1=CCC[C@@H]2[C@@](C)(CC/C(C)=C/C(=O)O)[C@H](C)CC[C@@]12C`: > 10 µM (inactive).
With `CCCCc1ccc(NC(=S)Nc2ccc(Cl)c(S(=O)(=O)N(C)C)c2)cc1`, the IC50 is > 10 µM (inactive).
As to `Cc1nc(SCC(=O)Nc2ccc(F)cc2)c(C#N)c(C)c1CC(=O)c1ccc(Br)cc1`, the IC50 was > 10 µM (inactive).
With `FC(F)(F)c1cccc(Sc2nc(-c3ccccc3)nnc2C(F)(F)F)c1`, the IC50 result was “inactive”.
Consider `O=C(Nc1ccc(Cl)cc1)Nc1ccc(N2CCCC2)c(S(=O)(=O)Nc2ccccc2Cl)c1`, for which the IC50 entry was “inactive”.
For `CCSCCc1nnc(NC(=O)Nc2cccc(C(F)(F)F)c2)s1`, the IC50 was 4.74 µM.
To `CC(=O)C1=C(c2ccc(Br)cc2)C(=O)c2ccccc2C1=O` belongs 0.99 µM.
To `COC(=O)C(O)(c1ccc(NC(=S)NC(=O)c2ccc(Cl)cc2Cl)c(C)c1)C(F)(F)F` (stereo not drawn) belongs > 10 µM (inactive).
For `Fc1ccc(Nc2nc(NCc3ccco3)c3ccccc3n2)cc1`, the IC50 is > 10 µM (inactive).
To `Cc1ccc(OCC(=O)N2CCN(c3nnc(-c4ccc(C)cc4)c4ccccc34)CC2)cc1` belongs “inactive”; to `CCCCCCn1c(CN2CCN(Cc3ccccc3)CC2)nc2c1c(=O)n(C)c(=O)n2C`, > 10 µM (inactive).
As to `CCOC(=O)C1=C(c2ccc(OC)cc2)C(=O)c2ccccc2C1=O`, the IC50 entry is “inactive”.
To `COc1ccc(-c2cc(C3CCN(Cc4cccc(C(F)(F)F)c4)CC3)[nH]n2)cc1` belongs “inactive”; to `CC1C/C(=C/c2ccccn2)C(=O)/C(=C/c2ccccn2)C1` (stereo not drawn), 2.68 µM.
To `CCCCS(=O)(=O)/C=C\C=C/S(=O)(=O)CCCC` belongs 2.68 µM; to `CCOc1cccc(C(=O)Nc2cccc(-c3nnc(-c4ccc(C)cc4)o3)c2)c1`, > 10 µM (inactive); to `CCOC(=O)c1c(-n2c(C)cc(C=C3C(=O)NC(=S)NC3=O)c2C)sc2c1CCCC2`, “inactive”.
Next, `CCOc1ccc2nc(NC(=O)CSc3nnnn3C3CCCCC3)sc2c1`: > 10 µM (inactive); `C=CCSc1nc2ccccc2n1C(=O)/C=C/c1cc(OC)c(OC)c(OC)c1`: 1.73 µM.
Take `Cc1cccc(C)c1NC(=O)COc1ccccc1C(=O)Nc1ccc(Br)cn1`: the IC50 is > 10 µM (inactive).
Next, `Cc1ccccc1NC(=O)/C=C/c1ccc([N+](=O)[O-])s1`: “inactive”.
On to `CCOC(=O)c1nc(S(C)(=O)=O)ncc1Cl`, for which the IC50 result is “inactive”.
Regarding `CC(C)Oc1ccc(CNC(=O)CC(c2ccccc2)c2cc(Cl)ccc2O)cc1` (stereo not drawn), the IC50 was > 10 µM (inactive).
As to `O=c1c(Cl)c(Cl)cnn1-c1ccccc1`, the IC50 result is “inactive”.
Next, `O=c1oc2ccccc2c(Cl)c1CN1CCCCC1`: “inactive”; `CC1(c2ccccc2)CC(C)(C)N2C(=O)/C(=C3\SC(=S)NC3=O)c3cccc1c32` (stereo not drawn): “inactive”; `Cc1ccc(CNCC(O)(c2ccccc2)c2ccc(Cl)cc2)cc1` (stereo not drawn): “inactive”.
As to `FC(F)(F)c1cccc(CN2CCC(c3cc(-c4cccs4)n[nH]3)CC2)c1`, the IC50 is > 10 µM (inactive).
Next, `O=C(/C=C/c1cccc(C(F)(F)F)c1)Nc1cccc(C(F)(F)F)c1`: “inactive”; `CCCCN=c1scc(-c2ccc3c(c2)NC(=O)CO3)n1N=C1CCCC1`: “inactive”.
Regarding `C=CCn1c(SCC(=O)Nc2ccc(-c3nc4ccc(C)cc4s3)cc2)nnc1-c1ccccc1`, the IC50 is > 10 µM (inactive).
As to `C=CCc1cc(C)ccc1OCC(O)CN1CCN(c2ccccc2)CC1` (stereo not drawn), the IC50 entry is “inactive”.
Next, `COc1ccccc1-c1nnc(NC(=O)c2ccc(S(=O)(=O)N(C)Cc3ccccc3)cc2)o1`: “inactive”; `Nc1ccc(N2CCCCCC2)cc1`: > 10 µM (inactive).
Next, `O=c1[nH]c(=O)n(Cc2ccco2)c2c1C(C(F)(F)F)(C(F)(F)F)N=C(c1ccc(F)cc1)N2`: > 10 µM (inactive); `Fc1cc(F)c2nc(Nc3nc4cc5c(cc4s3)OCO5)sc2c1`: > 10 µM (inactive).
Next, `COc1ccc(NS(=O)(=O)c2ccc(O)c(NC(=O)c3cc4c(C)nn(-c5ccc(F)cc5)c4s3)c2)cc1`: > 10 µM (inactive); `C=C(C)COc1ccc(-c2n[nH]c(C)c2-c2ccc(Br)cc2)c(O)c1`: “inactive”.
As to `COc1cc(OC)nc(-n2ncc(Br)c(Br)c2=O)n1`, the IC50 was 1.99 µM.
Next, `O=C(NNc1ccccc1[N+](=O)[O-])Nc1ccc(Cl)c(Cl)c1`: > 10 µM (inactive).
Turning to `Cc1ccc(NC(=O)O/N=C/c2c(C)nn(C(C)(C)C)c2C)cc1Cl`, the half-inhibitory concentration (IC50) is less than 0.16 µM.
To `CCOc1ccc(-c2nc(CSCC(=O)NCc3ccco3)c(C)o2)cc1` belongs less than 0.16 µM.
Next, `Cc1nc(SCC(=O)Nc2cc(C)on2)c2c3c(sc2n1)CCCC3`: > 10 µM (inactive); `Cc1ccc(-c2nc(N)sc2-c2ccc(C)cc2)cc1`: > 10 µM (inactive); `O=S(=O)(Nc1cc(Sc2ncn[nH]2)c(O)c2ccccc12)c1ccccc1`: “inactive”.
Regarding `Cc1ccc(OCC(=O)N2N=C(C(F)(F)F)CC2(O)C(C)(C)C)cc1C` (stereo not drawn), the IC50 entry is “inactive”.
Next, `O=C(Cc1csc(Nc2nc(=S)[nH]c3ccccc23)n1)NCCCN1CCN(c2ccccc2F)CC1`: > 10 µM (inactive); `Cc1ccc2[nH]c(O)c(N=NC(=O)CCc3ccccc3)c2c1Br`: “inactive”.
To `CCOC(=O)c1cc([N+](=O)[O-])c([N+](=O)[O-])cc1NC(C)=O` belongs “inactive”; to `Cc1ccccc1N1CCN(C(=O)c2ccc(Oc3ccc(C(F)(F)F)cn3)cc2)CC1`, 2.48 µM; to `COc1cc(/C=C(\C#N)c2nc3ccccc3[nH]2)cc(Br)c1OCc1ccc(F)cc1`, “inactive”.
Next, `CNC(=O)c1nnsc1S(=O)(=O)c1ccc(Cl)cc1`: “inactive”; `O=c1[nH]c(NNC(=S)NC2CCCCC2)nc2c1C1(CCCC1)Cc1ccccc1-2`: > 10 µM (inactive); `CCCNC(=O)c1nnsc1S(=O)c1ccc(Cl)cc1` (stereo not drawn): “inactive”.
Consider `CCOC(=O)COc1ccccc1/C=C\[N+](=O)[O-]`, for which the IC50 result was “inactive”.
Next, `Cc1cc(C(C)(C)C)oc1C(=O)N1CCN(C(=O)c2oc(C(C)(C)C)cc2C)CC1`: > 10 µM (inactive).
Next, `CCOc1cccc(CN2CCN(c3cccc(C(F)(F)F)c3)CC2)c1O`: > 10 µM (inactive); `COC(=O)C[C@]1(C(=O)OC)CN(C#N)N(c2ccc(Cl)cc2)C12c1ccccc1-c1ccccc12`: 4.38 µM; `CCN1/C(=C/c2ccc3cc(C)ccc3[n+]2C)Sc2ccc3sccc3c21`: 2.28 µM.
Next, `CCCCn1c(/N=C/c2c[nH]c3ccccc23)nc2ccccc21`: > 10 µM (inactive); `CCc1ccc(OCc2n[nH]c(=S)n2C(C)CCCC(C)C)cc1` (stereo not drawn): “inactive”; `Cc1ccc2nc(NC(=O)CSCC(=O)OCC(=O)c3ccc(Br)cc3)sc2c1`: 3.51 µM.
Turning to `CC1=C(CO)C(=O)OC([C@@H](C)C2CC[C@H]3C4C[C@H]5O[C@]56[C@@H](O)C=CC(=O)[C@]6(C)C4CC[C@]23C)C1` (stereo partly drawn), the IC50 is > 10 µM (inactive).
To `Cc1cc(Cl)ccc1OCC(=O)N[C@@H](Cc1ccccc1)c1nc2ccccc2[nH]1` belongs > 10 µM (inactive); to `O=c1c2ccccc2nc2n1CCN2Cc1ccc(Cl)cc1`, > 10 µM (inactive).
Turning to `O=C(NNC(=O)c1cccc2ccccc12)c1ccc(-c2ccccc2)cc1`, the IC50 was > 10 µM (inactive).
`O=C(Nc1ccc(Br)c(C(F)(F)F)c1)c1ccc(C(F)(F)F)cc1`: the half-inhibitory concentration (IC50) is 5.44 µM.
